This passage reports POD vs vehicle results from the supplement of paper PMC11368000.

Structures are written as SMILES.

In one test the test system is 11235 (donor line of iPSC-derived cardiomyocytes). Put plainly: POD (EC95) for loss of peak frequency (asystole) vs vehicle; higher = less potent (higher point of departure). The conditions noted are these: exposure time: 90 min. On the procedure:
(§1)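 Human iPSC-derived cardiomyocytes from 16 donors were exposed for 90 min at 37 °C to each PFAS at 0.1, 1, 10 and 100 µM in 0.5% DMSO, 384-well plates. Kinetic Ca2+ flux (FLIPR) and Hoechst nuclei counts were normalised to vehicle wells and fitted with a hierarchical Bayesian Hill model to give donor-specific PODs: EC05 for beat-rate increase or decrease and for decay-to-rise ratio increase (QT proxy), EC95 for peak-frequency loss (asystole), EC10 for total cell number loss. 0.03 µM is the lower bound.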
As for `O=C(O)C(F)(F)C(F)(F)C(F)(F)F` [Perfluorobutanoic_acid], the POD vs vehicle was more than 100 µM.
`O=C(O)C(F)(F)C(F)(F)C(F)(F)C(F)(F)C(F)(F)C(F)(F)C(F)(F)C(F)(F)C(F)(F)F` [Perfluorodecanoic_acid] registered a POD vs vehicle of 67.4 µM.
The compound `O=C(O)C(F)(F)C(F)(F)C(F)(F)C(F)(F)C(F)(F)C(F)(F)F` [Perfluoroheptanoic_acid] displayed a POD vs vehicle of more than 100 µM.
In turn, `NS(=O)(=O)C(F)(F)C(F)(F)C(F)(F)C(F)(F)C(F)(F)C(F)(F)F` [Perfluorohexanesulfonamide] gave a POD vs vehicle of 6.45 µM.
In the case of `O=S(=O)(O)C(F)(F)C(F)(F)C(F)(F)C(F)(F)C(F)(F)C(F)(F)F` [Perfluorohexanesulfonic_acid], the POD vs vehicle is more than 100 µM.
The same measure, in the same setting: the same measure for `O=C(O)C(F)(F)C(F)(F)C(F)(F)C(F)(F)C(F)(F)F` [Perfluorohexanoic_acid]: more than 100 µM; for `O=C(O)C(F)(F)C(F)(F)C(F)(F)C(F)(F)C(F)(F)C(F)(F)C(F)(F)C(F)(F)F` [Perfluorononanoic_acid]: 31.5 µM; for `NC(=O)C(F)(F)C(F)(F)C(F)(F)C(F)(F)C(F)(F)C(F)(F)C(F)(F)F` [Perfluorooctanamide]: more than 100 µM.
The same measure, in the same setting: the value for `N=C(N)C(F)(F)C(F)(F)C(F)(F)C(F)(F)C(F)(F)C(F)(F)C(F)(F)F` [Perfluorooctanamidine] was more than 100 µM; that for `O=S(=O)(O)C(F)(F)C(F)(F)C(F)(F)C(F)(F)C(F)(F)C(F)(F)C(F)(F)C(F)(F)F` [Perfluorooctanesulfonic_acid] was 12.5 µM.
The compound `O=C(O)C(F)(F)C(F)(F)C(F)(F)C(F)(F)C(F)(F)C(F)(F)C(F)(F)F` [Perfluorooctanoic_acid] had a POD vs vehicle of 92.2 µM.
On the same count and under the same terms, the value for `O=C(O)C(F)(F)C(F)(F)C(F)(F)C(F)(F)F` [Perfluoropentanoic_acid] was more than 100 µM; that for `O=C(O)C(F)(F)C(F)(F)F` [Perfluoropropanoic_acid] was more than 100 µM; that for `O=C(O)C(F)(F)C(F)(F)C(F)(F)C(F)(F)C(F)(F)C(F)(F)C(F)(F)C(F)(F)C(F)(F)C(F)(F)F` [Perfluoroundecanoic_acid] was 95.4 µM.
Regarding `O=S(=O)([O-])C(F)(F)C(F)(F)C(F)(F)C(F)(F)F.[K+]` [Potassium_perfluorobutanesulfonate], the POD vs vehicle is more than 100 µM.

For a further test, the system named is 1518 (donor line of iPSC-derived cardiomyocytes). The description is as above. The conditions noted are these: exposure time: 90 min. Here is the method: as §1
As for `O=C(O)C(F)(F)C(F)(F)C(F)(F)F` [Perfluorobutanoic_acid], the POD vs vehicle was more than 100 µM.
Consider `O=C(O)C(F)(F)C(F)(F)C(F)(F)C(F)(F)C(F)(F)C(F)(F)C(F)(F)C(F)(F)C(F)(F)F` [Perfluorodecanoic_acid], for which the POD vs vehicle was more than 100 µM.
As to `O=C(O)C(F)(F)C(F)(F)C(F)(F)C(F)(F)C(F)(F)C(F)(F)F` [Perfluoroheptanoic_acid], the POD vs vehicle is more than 100 µM.
As to `NS(=O)(=O)C(F)(F)C(F)(F)C(F)(F)C(F)(F)C(F)(F)C(F)(F)F` [Perfluorohexanesulfonamide], the POD vs vehicle was more than 100 µM.
Compound `O=S(=O)(O)C(F)(F)C(F)(F)C(F)(F)C(F)(F)C(F)(F)C(F)(F)F` [Perfluorohexanesulfonic_acid] had a POD vs vehicle of more than 100 µM.
Take `O=C(O)C(F)(F)C(F)(F)C(F)(F)C(F)(F)C(F)(F)F` [Perfluorohexanoic_acid]: the POD vs vehicle was more than 100 µM.
In turn, `O=C(O)C(F)(F)C(F)(F)C(F)(F)C(F)(F)C(F)(F)C(F)(F)C(F)(F)C(F)(F)F` [Perfluorononanoic_acid] came in with a POD vs vehicle of more than 100 µM.
In the case of `NC(=O)C(F)(F)C(F)(F)C(F)(F)C(F)(F)C(F)(F)C(F)(F)C(F)(F)F` [Perfluorooctanamide], the POD vs vehicle was more than 100 µM.
On to `N=C(N)C(F)(F)C(F)(F)C(F)(F)C(F)(F)C(F)(F)C(F)(F)C(F)(F)F` [Perfluorooctanamidine], for which the POD vs vehicle was more than 100 µM.
On to `O=S(=O)(O)C(F)(F)C(F)(F)C(F)(F)C(F)(F)C(F)(F)C(F)(F)C(F)(F)C(F)(F)F` [Perfluorooctanesulfonic_acid], for which the POD vs vehicle was more than 100 µM.
As to `O=C(O)C(F)(F)C(F)(F)C(F)(F)C(F)(F)C(F)(F)C(F)(F)C(F)(F)F` [Perfluorooctanoic_acid], the POD vs vehicle was more than 100 µM.
As to `O=C(O)C(F)(F)C(F)(F)C(F)(F)C(F)(F)F` [Perfluoropentanoic_acid], the POD vs vehicle is more than 100 µM.
For `O=C(O)C(F)(F)C(F)(F)F` [Perfluoropropanoic_acid], the POD vs vehicle is more than 100 µM.
For `O=C(O)C(F)(F)C(F)(F)C(F)(F)C(F)(F)C(F)(F)C(F)(F)C(F)(F)C(F)(F)C(F)(F)C(F)(F)F` [Perfluoroundecanoic_acid], the POD vs vehicle was more than 100 µM.
In turn, `O=S(=O)([O-])C(F)(F)C(F)(F)C(F)(F)C(F)(F)F.[K+]` [Potassium_perfluorobutanesulfonate] returned a POD vs vehicle of more than 100 µM.

A further test concerns 1516 (donor line of iPSC-derived cardiomyocytes). The test is described as above. The conditions noted are these: exposure time: 90 min. On the procedure: as §1
Compound `O=C(O)C(F)(F)C(F)(F)C(F)(F)F` [Perfluorobutanoic_acid] registered a POD vs vehicle of more than 100 µM.
`O=C(O)C(F)(F)C(F)(F)C(F)(F)C(F)(F)C(F)(F)C(F)(F)C(F)(F)C(F)(F)C(F)(F)F` [Perfluorodecanoic_acid] showed a POD vs vehicle of 68.8 µM.
`O=C(O)C(F)(F)C(F)(F)C(F)(F)C(F)(F)C(F)(F)C(F)(F)F` [Perfluoroheptanoic_acid] had a POD vs vehicle of more than 100 µM.
In turn, `NS(=O)(=O)C(F)(F)C(F)(F)C(F)(F)C(F)(F)C(F)(F)C(F)(F)F` [Perfluorohexanesulfonamide] yielded a POD vs vehicle of 77.8 µM.
`O=S(=O)(O)C(F)(F)C(F)(F)C(F)(F)C(F)(F)C(F)(F)C(F)(F)F` [Perfluorohexanesulfonic_acid] showed a POD vs vehicle of more than 100 µM.
Compound `O=C(O)C(F)(F)C(F)(F)C(F)(F)C(F)(F)C(F)(F)F` [Perfluorohexanoic_acid] registered a POD vs vehicle of more than 100 µM.
`O=C(O)C(F)(F)C(F)(F)C(F)(F)C(F)(F)C(F)(F)C(F)(F)C(F)(F)C(F)(F)F` [Perfluorononanoic_acid] had a POD vs vehicle of more than 100 µM.
